Test systems include A549 NSCLC; HCC-2998 colon; HT29 colon; NCI-H226 lung; NCI-H460 lung; SNB-19 CNS; SNB-75 CNS; U251 CNS; UACC-257 melanoma.
Holding throughout (assay): growth of human tumour cells (NCI), 48 h

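A five-concentration, 48-hour dose response in 96-well plates underlies each endpoint, interpolated linearly between surrounding concentrations. Here, GI50 denotes the concentration required for 50% inhibition of growth. TGI: concentration producing complete growth inhibition.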

Turning to `C[C@H]1NC(=O)C2CCCCN2C(=O)CN(C)C(=O)CNC(=O)C2CCCCN2C(=O)[C@@H](NC(=O)c2nc3ccccc3cc2O)[C@@H](C)NC(=O)C2CCCCN2C(=O)CN(C)C(=O)CNC(=O)[C@@H]2CCCCN2C(=O)C1NC(=O)c1nc2ccccc2cc1O` (stereo partly drawn), the TGI in the assay with A549 NSCLC is > 100 µM; in the assay with HCC-2998 colon, 0.479 µM; with HT29 colon, > 100 µM; with NCI-H226 lung it was 0.383 µM; with NCI-H460 lung, > 100 µM; in the assay with SNB-19 CNS, 2.11 µM. Further, the TGI came to 0.39 µM in the assay with SNB-75 CNS, 36.6 µM in the assay with U251 CNS and 0.537 µM in the assay with UACC-257 melanoma.
Take `c1ccc(SC2CCSc3ccccc3C2Sc2ccccc2)cc1` (stereo not drawn): the TGI in the assay with A549 NSCLC, in the assay with HCC-2998 colon, with HT29 colon, with NCI-H226 lung, in the assay with NCI-H460 lung and with SNB-19 CNS was > 100 µM each time. Besides, the TGI in the assay with SNB-75 CNS, with U251 CNS and in the assay on UACC-257 melanoma was > 100 µM each time.
Turning to `CCOC(=O)C1(c2ccccc2)CCC(=O)CC1`, the TGI in the assay with A549 NSCLC, in the assay on HCC-2998 colon, in the assay with HT29 colon, in the assay on NCI-H226 lung, in the assay on NCI-H460 lung and with SNB-19 CNS was > 100 µM each time. For the same compound, the TGI in the assay on SNB-75 CNS, in the assay on U251 CNS and in the assay with UACC-257 melanoma was > 100 µM each time.
Regarding `CC(=O)n1c2c(c(=O)n1-c1ccccc1)S(=O)CCC2` (stereo not drawn), the TGI in the assay on A549 NSCLC, in the assay with HCC-2998 colon, with HT29 colon, in the assay with NCI-H226 lung, with NCI-H460 lung and in the assay with SNB-19 CNS was > 100 µM each time. Moreover, the TGI in the assay with SNB-75 CNS, in the assay with U251 CNS and with UACC-257 melanoma was > 100 µM in each case.
As to `CCCCCCC[CH2][Sn]1([CH2]CCCCCCC)[O]C(=O)c2cccnc2[S]1`, the GI50 in the assay on A549 NSCLC, with HCC-2998 colon, with HT29 colon, in the assay on NCI-H226 lung, in the assay with NCI-H460 lung and in the assay on SNB-19 CNS was > 100 µM in each case. In addition, the GI50 in the assay on SNB-75 CNS, in the assay with U251 CNS and in the assay on UACC-257 melanoma was > 100 µM in each case. Further, the TGI in the assay on A549 NSCLC, with HCC-2998 colon, in the assay with HT29 colon, in the assay with NCI-H226 lung, in the assay with NCI-H460 lung and with SNB-19 CNS was > 100 µM in each case. Moreover, the TGI with SNB-75 CNS, in the assay on U251 CNS and in the assay with UACC-257 melanoma was > 100 µM each time.
`COc1ccc(-c2cc(-c3ccccc3)c(C#N)c(=O)n2C2OC(CO)C(O)C(O)C2O)cc1` (stereo not drawn): the TGI in the assay on A549 NSCLC, in the assay with HCC-2998 colon, with HT29 colon, in the assay on NCI-H226 lung, in the assay on NCI-H460 lung and with SNB-19 CNS was > 100 µM each time. The TGI in the assay with U251 CNS and with UACC-257 melanoma was > 100 µM each time.
In the case of `COC(=O)[C@]1(C)CCCC2(C)C1CC[C@H]1C=C(C)[C@H]3CCC12C3` (stereo partly drawn), the TGI in the assay with A549 NSCLC, with HCC-2998 colon, with HT29 colon, with NCI-H226 lung, with NCI-H460 lung and in the assay with SNB-19 CNS was > 100 µM each time. Also, the TGI in the assay with SNB-75 CNS, in the assay with U251 CNS and in the assay on UACC-257 melanoma was > 100 µM throughout.
For `CC[C@@]12N=C(N(C)C)C[C@]1(O)ON=C2C`, the TGI with A549 NSCLC, in the assay on HCC-2998 colon, with HT29 colon, in the assay with NCI-H226 lung, in the assay with NCI-H460 lung and in the assay with SNB-19 CNS was > 100 µM in each case. In addition, the TGI with SNB-75 CNS and with U251 CNS was > 100 µM throughout.
In the case of `Cc1ccc(NC(=O)C2C(=O)N(c3ccc(C)c(C)c3)C(=O)C2N=N)cc1C` (stereo not drawn), the TGI with A549 NSCLC, with HCC-2998 colon, in the assay on HT29 colon, with NCI-H226 lung, with NCI-H460 lung and with SNB-19 CNS was > 100 µM throughout. Also, the TGI with SNB-75 CNS, in the assay with U251 CNS and in the assay with UACC-257 melanoma was > 100 µM throughout.
On to `COc1ccc2oc(-c3cccnc3)cc(=O)c2c1`, for which the TGI in the assay on HCC-2998 colon, in the assay on HT29 colon, in the assay on NCI-H226 lung, in the assay with NCI-H460 lung, in the assay on SNB-19 CNS and in the assay on SNB-75 CNS was > 100 µM in each case. In addition, the TGI in the assay with U251 CNS and in the assay with UACC-257 melanoma was > 100 µM in each case.
Regarding `COc1ccc(/C(=N\NC(=O)C(N)=O)C(c2ccc(OC)cc2)C2(O)C(=O)Nc3c(Cl)cccc32)cc1` (stereo not drawn), the TGI with A549 NSCLC, in the assay on HCC-2998 colon, with HT29 colon, with NCI-H226 lung, in the assay with NCI-H460 lung and in the assay with SNB-19 CNS was > 100 µM each time. Further, the TGI in the assay on SNB-75 CNS, with U251 CNS and with UACC-257 melanoma was > 100 µM each time.
On to `O=C(CSc1nnc(-c2ccc(N=Cc3ccc(Cl)cc3)cc2)o1)Nc1ccc(Cl)cc1`, for which the TGI in the assay on A549 NSCLC, in the assay with HT29 colon, in the assay with NCI-H226 lung, in the assay with NCI-H460 lung, with SNB-19 CNS and with SNB-75 CNS was > 100 µM each time. Besides, the TGI in the assay with U251 CNS and with UACC-257 melanoma was > 100 µM each time.
For the compound `COc1ccc(NC(=O)/C(N=O)=C(/C)O)cc1`, the TGI in the assay on A549 NSCLC was > 100 µM; with HCC-2998 colon, > 100 µM; in the assay on HT29 colon, > 100 µM; in the assay on NCI-H226 lung it was > 100 µM; in the assay with NCI-H460 lung it was 53.5 µM; in the assay with SNB-19 CNS it was > 100 µM. Also, the TGI in the assay on SNB-75 CNS, in the assay on U251 CNS and in the assay with UACC-257 melanoma was > 100 µM each time.
Turning to `O=C(NC(=O)c1cn(CCNCCO)c(=O)[nH]c1=O)OCc1ccccc1`, the TGI in the assay on A549 NSCLC, in the assay with HT29 colon, with NCI-H226 lung, in the assay with NCI-H460 lung, in the assay with SNB-75 CNS and in the assay on U251 CNS was > 100 µM each time.

For the origin of these results see PubChem BioAssay (NCI).
